Assay [1] concerns the target T1, specific ANP receptor sites on BASM or BAE cells (Bos taurus, UniProt P10730).
T1 construct: specific receptor sites on BASM or BAE cells; endogenous in cells; host or cells: cultured BASM and BAE cells
T1 sequence (P10730 42-537): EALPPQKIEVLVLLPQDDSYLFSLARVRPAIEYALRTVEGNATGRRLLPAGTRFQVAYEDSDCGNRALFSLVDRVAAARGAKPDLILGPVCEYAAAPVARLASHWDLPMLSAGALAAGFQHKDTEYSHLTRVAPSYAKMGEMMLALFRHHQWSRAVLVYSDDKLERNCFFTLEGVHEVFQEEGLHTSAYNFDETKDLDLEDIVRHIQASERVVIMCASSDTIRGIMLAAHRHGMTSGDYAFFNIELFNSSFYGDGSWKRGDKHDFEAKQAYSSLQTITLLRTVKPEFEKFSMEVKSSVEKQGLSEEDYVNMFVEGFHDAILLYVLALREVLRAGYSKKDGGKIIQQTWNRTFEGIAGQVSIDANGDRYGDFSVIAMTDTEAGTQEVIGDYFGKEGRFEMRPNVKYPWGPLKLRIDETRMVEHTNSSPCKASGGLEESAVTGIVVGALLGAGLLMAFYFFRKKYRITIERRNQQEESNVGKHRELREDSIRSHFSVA
In words: Competitive displacement receptor binding of (125I)-rANP(126-150) on cultured cells. Further details: species or system bovine. The source says: Analogous "competitive displacement" receptor binding assays are considered commonplace in the art for examining specific ligand-receptor interactions.
Assuming these ANP analogs act at one or more ANP receptor sites, then increased receptor affinity should reflect increased biological potency.

The subject of assay [2] is anesthetized rats. As to the kind of experiment: Diuresis in anesthetized rats. The format is in vivo, rat. Conditions: infused at 5 mcg/min via femoral vein; versus baseline; FIG. 3. Here is the method:
In one set of examples, cannulae were placed in the left and right ureters and femoral vein of anesthetized rats and urine was collected from the ureters. Analog peptides were administered via the femoral vein. Prior to infusing the analog peptides, saline was infused for 30 minutes, urine was collected for 6 five-minute baseline periods and urine volume was determined gravimetrically. Following these baseline collection periods, various analog peptides were infused for 30 or 60 minutes and urine volume was measured in five-minute periods during infusion and for 60 minutes following infusion (at which time rats were returned to saline). Data was examined by averaging urine flow rates for six five-minute baseline control periods immediately preceding infusion, and comparing values during and after administration of peptides with the "baseline" control values. Responses to peptides are thus evaluated and plotted as the percent of baseline control responses. Specific examples are shown in FIGS. 3A-H. The error bars at the beginning of the graphs represent baseline values +standard deviations. Responses to peptides that are substantially above baseline ±SD can thus be interpreted as being statistically significant increases.

Assay [3] deals with pentobarbital-anesthetized dogs. In words: Diuresis and natriuresis in anesthetized dogs. The format is in vivo, dog. As for the experimental part:
In these examples, cannulae were placed in the left and right ureters and femoral vein of anesthetized dogs and urine was collected from the ureters. Analog peptides were administered via the femoral vein. Prior to infusing analog peptides, saline was infused for 30 minutes and urine was then collected for three ten-minute collection periods. Urine volume was determined gravimetrically and urine sodium was determined photometrically.
Following these three baseline collection periods, the selected analog peptides were infused for 60 minutes and urinary flow was measured for an additional 60 minutes following infusion. During infusion (60 minutes) and recovery (60 minutes), ten-minute collection periods were obtained. Control animals which received only saline were studied in parallel.
Data were examined by comparing urine flow rates for dogs infused with peptides AP101 (3 mcg/kg/min), AP306 (3 mcg/kg/min), AP324 (3 mcg/kg/min),or AP314 (1 mcg/kg/min) against control animals infused with saline.

Assay [4] relates to anesthetized rats. As to the kind of experiment: Blood pressure responses in anesthetized rats. The format is in vivo, rat. Conditions: infusion 733 p mol/kg/min.

“Also recorded” adds a separate entry of the source. Where a SMILES comes first, the peptide text is derived from it. Bridges are numbered along the chain shown (N, C = ends). Where no end group is shown, it is not given here.

The record followed here is US5047397A, “Linear analogs of atrial natriuretic peptides” (California Biotechnology Inc., priority 1988, dated 1991).

Regarding “AFGGRIDRIGA-NH2 [AP101, A--F--G--G--R--I--D--R--I--G--A--NH2]”, the “Ki(app)” value in assay [1] (concentration of unlabeled peptide displacing 50% of maximal binding of 0.5 nM (125I)-rANP(126-150), BASM or BAE cells) was 2.63 nM. Besides, the “prevention of (125I)-rANP(126-150) binding to BASM cell-associated receptors (FIG. 2)” value in assay [1] (increasing concentrations of unlabeled peptide, BASM cells) is listed as “effectively prevent”. Further, the “urine flow rate (urine volume), diuretic response” value in the assay with anesthetized rats [2] is given as “induce diuresis; also recorded: significantly increased”. In addition, in assay [3] (3 mcg/kg/min infused 60 min, *P<0.05, control 0.61), the “Peak Urine Flow Rate V” value was 1.77 mL/min. Further, the “urine flow rate and urinary sodium excretion (diuresis, natriuresis), in words” value in assay [3] (3 mcg/kg/minute infusion) is “cause diuresis; also recorded: significantly increased”.

As to `CC[C@H](C)[C@@H]1NC(=O)[C@H](CCCNC(=N)N)NC(=O)[C@H](CC(=O)O)NC(=O)[C@H]([C@@H](C)CC)NC(=O)[C@H](CCCNC(=N)N)NC(=O)CNC(=O)CNC(=O)[C@H](Cc2ccccc2)NC(=O)[C@@H](NC(=O)[C@H](CO)NC(=O)[C@H](CO)NC(=O)[C@@H](N)CCCNC(=N)N)CSSC[C@@H](C(=O)N[C@@H](CC(N)=O)C(=O)N[C@@H](CO)C(=O)N[C@@H](Cc2ccccc2)C(=O)N[C@@H](CCCNC(=N)N)C(=O)N[C@@H](Cc2ccc(O)cc2)C(=O)O)NC(=O)[C@H](C)NC(=O)CNC1=O` [AP20, R--S--S--C--F--G--G--R--I--D--R--I--G--A--C--N--S--F--R--Y] (H-RSSCFGGRIDRIGACNSFRY-OH; disulfide 4-15), in assay [1] (Table 2A, unit not given, in nM), the Ki was 7.50. Besides, the “urine flow rate (urine volume), diuretic response” value in the assay with anesthetized rats [2] was “significantly increased”. In the assay with anesthetized rats [4], the “Blood Pressure” value is -34 ± 3.
